PubChem BioAssay (NCI)
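Tested at 5 concentrations; 48 h exposure; 96-well plates; endpoints linearly interpolated, else capped at highest concentration. TGI is the concentration that stops growth completely.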

Experiments:
Assay in all cases: NCI-60 cell line screen, 48 h
OVCAR-8 ovarian = system: OVCAR-8 ovarian
UO-31 renal = system: UO-31 renal
HS 578T breast = system: HS 578T breast
LOX IMVI melanoma = system: LOX IMVI melanoma
786-0 renal = system: 786-0 renal
KM12 colon = system: KM12 colon
SK-MEL-2 melanoma = system: SK-MEL-2 melanoma
OVCAR-5 ovarian = system: OVCAR-5 ovarian
RXF 393 renal = system: RXF 393 renal
NCI-H23 lung = system: NCI-H23 lung
SW-620 colon = system: SW-620 colon
SK-MEL-5 melanoma = system: SK-MEL-5 melanoma
A549 NSCLC = system: A549 NSCLC
RPMI-8226 leukemia = system: RPMI-8226 leukemia
EKVX NSCLC = system: EKVX NSCLC
MDA-MB-435 = system: MDA-MB-435
U251 CNS = system: U251 CNS
IGROV1 ovarian = system: IGROV1 ovarian
DU-145 prostate = system: DU-145 prostate
SNB-19 CNS = system: SNB-19 CNS
T-47D breast = system: T-47D breast
HL-60(TB) leukemia = system: HL-60(TB) leukemia
PC-3 prostate = system: PC-3 prostate
ACHN renal = system: ACHN renal
MOLT-4 leukemia = system: MOLT-4 leukemia
SN12C renal = system: SN12C renal
HT29 colon = system: HT29 colon
CCRF-CEM leukemia = system: CCRF-CEM leukemia
CAKI-1 renal = system: CAKI-1 renal
HOP-92 NSCLC = system: HOP-92 NSCLC
BT-549 breast = system: BT-549 breast
MALME-3M melanoma = system: MALME-3M melanoma
MDA-MB-231 breast = system: MDA-MB-231 breast
M14 melanoma = system: M14 melanoma
OVCAR-3 ovarian = system: OVCAR-3 ovarian
HCT-116 colon = system: HCT-116 colon
SNB-75 CNS = system: SNB-75 CNS
OVCAR-4 ovarian = system: OVCAR-4 ovarian
COLO 205 colon = system: COLO 205 colon
HCT-15 colon = system: HCT-15 colon
SF-268 CNS = system: SF-268 CNS
NCI-H460 lung = system: NCI-H460 lung
SK-MEL-28 melanoma = system: SK-MEL-28 melanoma
A498 renal = system: A498 renal
TK-10 renal = system: TK-10 renal
K-562 leukemia = system: K-562 leukemia
SF-539 CNS = system: SF-539 CNS
SF-295 CNS = system: SF-295 CNS
NCI-H226 lung = system: NCI-H226 lung
MCF7 breast = system: MCF7 breast
UACC-257 melanoma = system: UACC-257 melanoma
MDA-N = system: MDA-N
HCC-2998 colon = system: HCC-2998 colon
NCI-H522 lung = system: NCI-H522 lung
NCI/ADR-RES ovarian = system: NCI/ADR-RES ovarian
HOP-62 NSCLC = system: HOP-62 NSCLC
UACC-62 melanoma = system: UACC-62 melanoma
SK-OV-3 ovarian = system: SK-OV-3 ovarian

Question: With Nc1nc(Cl)c(N=Nc2ccc(Cl)cc2)c(NCC2(CO)CCC(CCc3ccccc3)C2)n1 (stereo not drawn) as the compound, how does the TGI (OVCAR-8 ovarian) read?
Answer: Its TGI is 19.3 µM.

Question: What about the TGI (UO-31 renal) of the same compound?
Answer: The TGI was 4.31 µM.

Question: And the TGI (HS 578T breast)?
Answer: The TGI was greater than 55.3 µM.

Question: And the TGI (LOX IMVI melanoma)?
Answer: Its TGI is 4.59 µM.

Question: And the TGI (786-0 renal)?
Answer: The TGI was 21.6 µM.

Question: What about the TGI (KM12 colon) of the same compound?
Answer: The TGI was 26.9 µM.

Question: What about the TGI (SK-MEL-2 melanoma) of the same compound?
Answer: The TGI was 33.5 µM.

Question: And the TGI (OVCAR-5 ovarian)?
Answer: Its TGI is 31.3 µM.

Question: And the TGI (RXF 393 renal)?
Answer: Its TGI is 22.2 µM.

Question: And the TGI (NCI-H23 lung)?
Answer: Its TGI is 15.6 µM.

Question: What about the TGI (SW-620 colon) of the same compound?
Answer: The TGI was 17 µM.

Question: And the TGI (SK-MEL-5 melanoma)?
Answer: The TGI was 13.6 µM.

Question: What about the TGI (A549 NSCLC) of the same compound?
Answer: Its TGI is 51.7 µM.

Question: And the TGI (RPMI-8226 leukemia)?
Answer: The TGI was 32.9 µM.

Question: And the TGI (EKVX NSCLC)?
Answer: Its TGI is 28.3 µM.

Question: What about the TGI (MDA-MB-435) of the same compound?
Answer: The TGI was 23.7 µM.

Question: What about the TGI (U251 CNS) of the same compound?
Answer: Its TGI is 31.2 µM.

Question: And the TGI (IGROV1 ovarian)?
Answer: Its TGI is 23.4 µM.

Question: And the TGI (DU-145 prostate)?
Answer: Its TGI is 25.9 µM.

Question: And the TGI (SNB-19 CNS)?
Answer: Its TGI is 48.7 µM.

Question: What about the TGI (T-47D breast) of the same compound?
Answer: Its TGI is 32.2 µM.

Question: And the TGI (HL-60(TB) leukemia)?
Answer: Its TGI is 20.9 µM.

Question: And the TGI (PC-3 prostate)?
Answer: The TGI was 25.8 µM.

Question: And the TGI (ACHN renal)?
Answer: The TGI was 19.9 µM.

Question: What about the TGI (MOLT-4 leukemia) of the same compound?
Answer: The TGI was 8.49 µM.

Question: And the TGI (SN12C renal)?
Answer: Its TGI is 30.2 µM.

Question: What about the TGI (HT29 colon) of the same compound?
Answer: Its TGI is 30.4 µM.

Question: And the TGI (CCRF-CEM leukemia)?
Answer: Its TGI is 8.84 µM.

Question: And the TGI (CAKI-1 renal)?
Answer: Its TGI is 13.5 µM.

Question: And the TGI (HOP-92 NSCLC)?
Answer: The TGI was 29.3 µM.

Question: And the TGI (BT-549 breast)?
Answer: Its TGI is 23.4 µM.

Question: And the TGI (MALME-3M melanoma)?
Answer: The TGI was 51 µM.

Question: What about the TGI (MDA-MB-231 breast) of the same compound?
Answer: Its TGI is 31.2 µM.

Question: And the TGI (M14 melanoma)?
Answer: The TGI was 31.5 µM.

Question: What about the TGI (OVCAR-3 ovarian) of the same compound?
Answer: Its TGI is 23.6 µM.

Question: And the TGI (HCT-116 colon)?
Answer: Its TGI is 20.2 µM.

Question: And the TGI (SNB-75 CNS)?
Answer: Its TGI is 28 µM.

Question: And the TGI (OVCAR-4 ovarian)?
Answer: Its TGI is 10.6 µM.

Question: And the TGI (COLO 205 colon)?
Answer: Its TGI is 19.4 µM.

Question: And the TGI (HCT-15 colon)?
Answer: The TGI was 24.7 µM.

Question: What about the TGI (SF-268 CNS) of the same compound?
Answer: Its TGI is 33.4 µM.

Question: What about the TGI (NCI-H460 lung) of the same compound?
Answer: Its TGI is 30.6 µM.

Question: What about the TGI (SK-MEL-28 melanoma) of the same compound?
Answer: The TGI was 35.3 µM.

Question: What about the TGI (A498 renal) of the same compound?
Answer: Its TGI is 27.3 µM.

Question: What about the TGI (TK-10 renal) of the same compound?
Answer: Its TGI is 27.5 µM.

Question: What about the TGI (K-562 leukemia) of the same compound?
Answer: Its TGI is 9.78 µM.

Question: And the TGI (SF-539 CNS)?
Answer: Its TGI is 34.5 µM.

Question: And the TGI (SF-295 CNS)?
Answer: Its TGI is 25.7 µM.

Question: And the TGI (NCI-H226 lung)?
Answer: Its TGI is 19.4 µM.

Question: And the TGI (MCF7 breast)?
Answer: The TGI was 19.5 µM.

Question: What about the TGI (UACC-257 melanoma) of the same compound?
Answer: The TGI was 25.1 µM.

Question: What about the TGI (MDA-N) of the same compound?
Answer: Its TGI is 30.2 µM.

Question: What about the TGI (HCC-2998 colon) of the same compound?
Answer: The TGI was 17.3 µM.

Question: What about the TGI (NCI-H522 lung) of the same compound?
Answer: Its TGI is 5.42 µM.

Question: And the TGI (NCI/ADR-RES ovarian)?
Answer: The TGI was 34.4 µM.

Question: What about the TGI (HOP-62 NSCLC) of the same compound?
Answer: The TGI was 28.1 µM.

Question: What about the TGI (UACC-62 melanoma) of the same compound?
Answer: Its TGI is 22.1 µM.

Question: What about the TGI (SK-OV-3 ovarian) of the same compound?
Answer: The TGI was 26.1 µM.
